Measurements taken from patent US20040235932A1, “Ophthalmic pharmaceutical compositions” (priority 2001, published 2004).
Entries after “also recorded” stand apart in the source; their conditions may differ.

Experiments:
[1] = system: Dutch male colored rabbits; assay: Activity to reduce intraocular pressure on continuous eye drop administration in rabbits; format: in vivo, rabbit; settings: for Difference in intraocular pressure after the administration: test eye vs control eye, mean±S.E.; for time of maximum reduction in intraocular pressure after the administration: all determination days to the 57th day
Procedure: KRG-3332 as prepared in Reference Example 2 was dissolved in physiological saline to prepare a 0.01% solution, which was used as test solution 1 (0.01% eye drop) in the following method for determining the activity to reduce intraocular pressure. […] For the administration of eye drop, each 50 ρL of the test solution and the control (physiological saline) was administered to one eye and the other eye respectively, twice a day (11:00 and 19:00), and the administration continued for up to 57 days. The corneal surfaces of the animals were anaesthetized with 0.4% oxybuprocaine hydrochloride eye drop to, and the intraocular pressure was determined at time points of 11:00 (before the administration), 13:00(2 hours after the administration), 15:00 (4 hours after the administration) and 19:00 (8 hours after the administration, immediately before the second administration) one day before the administration and thereafter every week using an air applanation ophthalmotonometer (ALCON JAPAN LTD.). Average (mean±S.E.) of the difference between the intraocular pressures of eyes administered with the test solution and the control as determined at each time point, and the relevant t-test results were estimated. KRG-3332 was dissolved in physiological saline to prepare a 0.1% solution, which was used as test solution 2 (0.1% eye drop) in the determination of the activity to reduce intraocular pressure in a similar manner to above (1). For the comparison, bunazosin hydrochloride was dissolved in physiological saline to prepare a 0.03% solution, which was used as test solution 3 (reference drug, 0.03% eye drop of bunazosin hydrochloride) in the determination of the activity to reduce intraocular pressure in a similar manner to above (1) and (2).

[2] = system: patients suffering from primary closed angle glaucoma and ocular hypertension; settings: 0.05% eye drop, continuous administration; cited from earlier work
[3] = biological target: T1, human variant α1 A-AR (Homo sapiens, UniProt P35348, A271T); assay: Effects on expression level of α1 A-AR in CHO cells expressing variant α1 A-AR ([3H]-prazosin binding to membrane fractions); settings: CHO cells expressing variant α1 A-AR cultured 48 hours with test drug 10^−8 M (mixture: each 10^−8 M)
T1 sequence (P35348 1-466 A271T): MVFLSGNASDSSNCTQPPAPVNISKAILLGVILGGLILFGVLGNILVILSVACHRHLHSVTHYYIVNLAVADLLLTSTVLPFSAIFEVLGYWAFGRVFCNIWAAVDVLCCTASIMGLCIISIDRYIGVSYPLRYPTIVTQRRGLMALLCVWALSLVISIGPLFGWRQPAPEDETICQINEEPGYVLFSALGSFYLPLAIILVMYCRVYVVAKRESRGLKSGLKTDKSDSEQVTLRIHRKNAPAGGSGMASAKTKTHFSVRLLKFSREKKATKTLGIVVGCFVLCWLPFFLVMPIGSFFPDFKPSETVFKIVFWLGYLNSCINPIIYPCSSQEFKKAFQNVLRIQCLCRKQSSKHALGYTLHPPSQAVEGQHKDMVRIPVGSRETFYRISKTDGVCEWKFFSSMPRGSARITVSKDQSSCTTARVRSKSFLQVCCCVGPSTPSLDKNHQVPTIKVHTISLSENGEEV
Procedure: The wild or variant α1 A-AR gene was incorporated into mammalian expression vector pCR3 (Invitrogen Inc.) using restriction enzyme EcoRI, and the vector was transfected into CHO cells with Lipofectamin (GIBCO Inc.).
The membrane fractions (about 20 μg protein/tube) were incubated in the presence of [^3 H]-prazosin (NEN Inc.) (30 to 200 μM) at 30° C. for 45 minutes, and then harvested on GF/C filter (Whatman Inc.) using a cell collecting apparatus (m-36T, Brandel Inc.). The filter was washed with 50 mM Tris-HCl buffer (pH7.4) several times, and then the radioactivity bound on the membrane was determined using a liquid scintillation counter. […] The experimental data was analyzed using nonlinear approximate program PRISM (trade mark) (Graphpad Software Inc.) to calculate the expression level of the receptor.

[4] = system: patients suffering from ocular hypertension; settings: cited from earlier work

## CCOc1ccccc1OCCN[C@H](C)Cc1cc(C(N)=O)c2c(ccn2CCCOC(=O)C(C)(C)C)c1.Cl [KRG-3332, (R)-3-[7-carbamoyl-5-[2-[[2-(2-ethoxyphenoxy)ethyl]amino]propyl]-1H-indol-1-yl]propyl pivalate hydrochloride]
[1]; 0.01% and 0.1% eye drops twice a day for up to 57 days
  development of drug resistance (change in activity to reduce intraocular pressure by continuous administration): no development of drug resistance
[1]; 0.01% eye drop, 1st day, 0 hours after the administration
  Difference in intraocular pressure after the administration: 0.050 ± 0.398 mmHg
[1]; 0.01% eye drop, 1st day, 8 hours after the administration
  Difference in intraocular pressure after the administration: −0.400 ± 0.392 mmHg
[1]; 0.01% eye drop, 8th day, 0 hours after the administration
  Difference in intraocular pressure after the administration: −0.200 ± 0.242 mmHg
[1]; 0.01% eye drop, 15th day, 4 hours after the administration
  Difference in intraocular pressure after the administration: −1.600 ± 0.882 mmHg
[1]; 0.01% eye drop, 15th day, 8 hours after the administration
  Difference in intraocular pressure after the administration: −0.350 ± 0.828 mmHg
[1]; 0.01% eye drop, 22nd day, 0 hours after the administration
  Difference in intraocular pressure after the administration: −0.850 ± 0.589 mmHg
[1]; 0.01% eye drop, 22nd day, 8 hours after the administration
  Difference in intraocular pressure after the administration: −0.550 ± 0.348 mmHg
[1]; 0.01% eye drop, 29th day, 8 hours after the administration
  Difference in intraocular pressure after the administration: −0.400 ± 0.392 mmHg
[1]; 0.01% eye drop, 36th day, 0 hours after the administration
  Difference in intraocular pressure after the administration: −0.500 ± 0.447 mmHg
[1]; 0.01% eye drop, 36th day, 4 hours after the administration
  Difference in intraocular pressure after the administration: −1.349 ± 0.831 mmHg
[1]; 0.01% eye drop, 36th day, 8 hours after the administration
  Difference in intraocular pressure after the administration: −1.250 ± 0.818 mmHg
[1]; 0.01% eye drop, 43rd day, 0 hours after the administration
  Difference in intraocular pressure after the administration: −0.150 ± 0.491 mmHg
[1]; 0.01% eye drop, 43rd day, 8 hours after the administration
  Difference in intraocular pressure after the administration: 0.100 ± 0.376 mmHg
[1]; 0.01% eye drop, 50th day, 0 hours after the administration
  Difference in intraocular pressure after the administration: −0.400 ± 0.430 mmHg
[1]; 0.01% eye drop, 50th day, 8 hours after the administration
  Difference in intraocular pressure after the administration: −0.900 ± 0.551 mmHg
[1]; 0.01% eye drop, 57th day, 0 hours after the administration
  Difference in intraocular pressure after the administration: 0.050 ± 0.366 mmHg
[1]; 0.01% eye drop, 57th day, 8 hours after the administration
  Difference in intraocular pressure after the administration: −0.150 ± 0.400 mmHg
[1]; 0.01% eye drop
  time of maximum reduction in intraocular pressure after the administration: 2 h
[1]; 0.1% eye drop, 1st day, 0 hours after the administration
  Difference in intraocular pressure after the administration: 0.000 ± 0.285 mmHg
[1]; 0.1% eye drop, 8th day, 0 hours after the administration
  Difference in intraocular pressure after the administration: −1.050 ± 0.619 mmHg
[1]; 0.1% eye drop, 15th day, 0 hours after the administration
  Difference in intraocular pressure after the administration: −1.350 ± 0.944 mmHg
[1]; 0.1% eye drop, 15th day, 8 hours after the administration
  Difference in intraocular pressure after the administration: −1.700 ± 0.917 mmHg
[1]; 0.1% eye drop, 36th day, 0 hours after the administration
  Difference in intraocular pressure after the administration: −1.050 ± 0.878 mmHg
[1]; 0.1% eye drop, 43rd day, 8 hours after the administration
  Difference in intraocular pressure after the administration: −2.250 ± 0.862 mmHg
[1]; 0.1% eye drop, 50th day, 0 hours after the administration
  Difference in intraocular pressure after the administration: −0.600 ± 0.801 mmHg
[1]; 0.1% eye drop, 50th day, 4 hours after the administration
  Difference in intraocular pressure after the administration: −1.950 ± 0.756 mmHg
[1]; 0.1% eye drop, 50th day, 8 hours after the administration
  Difference in intraocular pressure after the administration: −1.150 ± 0.573 mmHg
[1]; 0.1% eye drop, 57th day, 0 hours after the administration
  Difference in intraocular pressure after the administration: −1.500 ± 0.822 mmHg
[1]; 0.1% eye drop
  time of maximum reduction in intraocular pressure after the administration: 2 h

## CCCC(=O)N1CCCN(c2nc(N)c3cc(OC)c(OC)cc3n2)CC1.Cl [bunazosin hydrochloride, 1-(4-amino-6,7-dimethoxy-2-quinazolinyl)-4-butyrylhexahydro-1H-1,4-diazepin hydrochloride, reference compound]
[2]
  attenuation in activity to reduce intraocular pressure: initiate the attenuation in an activity to reduce intraocular pressure after 4-weeks continuous administration
[3]
  expression level of the α1 A-AR (receptor levels): induced the increase in the receptor levels about three times compared to the treatment with KRG-3333
[1]; 0.03% eye drop twice a day, up to 29th day, hydrochloride
  development of drug resistance (change in activity to reduce intraocular pressure by continuous administration): any difference from the eyes administered with the control was hardly observed on the 22nd day; also recorded: any reduction in intraocular pressure was hardly observed on the 22nd day
[1]; 0.03% eye drop, 1st day, 0 hours after the administration
  Difference in intraocular pressure after the administration: 0.700 ± 0.320 mmHg
[1]; 0.03% eye drop, 1st day, 4 hours after the administration
  Difference in intraocular pressure after the administration: −1.700 ± 1.452 mmHg
[1]; 0.03% eye drop, 1st day, 8 hours after the administration
  Difference in intraocular pressure after the administration: 0.150 ± 0.947 mmHg
[1]; 0.03% eye drop, 8th day, 0 hours after the administration
  Difference in intraocular pressure after the administration: 0.600 ± 0.579 mmHg
[1]; 0.03% eye drop, 8th day, 4 hours after the administration
  Difference in intraocular pressure after the administration: −0.950 ± 1.176 mmHg
[1]; 0.03% eye drop, 8th day, 8 hours after the administration
  Difference in intraocular pressure after the administration: −0.350 ± 0.430 mmHg
[1]; 0.03% eye drop, 15th day, 0 hours after the administration
  Difference in intraocular pressure after the administration: 0.100 ± 0.562 mmHg
[1]; 0.03% eye drop, 15th day, 2 hours after the administration
  Difference in intraocular pressure after the administration: −1.450 ± 0.804 mmHg
[1]; 0.03% eye drop, 15th day, 4 hours after the administration
  Difference in intraocular pressure after the administration: −0.250 ± 0.494 mmHg
[1]; 0.03% eye drop, 15th day, 8 hours after the administration
  Difference in intraocular pressure after the administration: −0.100 ± 0.150 mmHg
[1]; 0.03% eye drop, 22nd day, 0 hours after the administration
  Difference in intraocular pressure after the administration: −0.050 ± 0.567 mmHg
[1]; 0.03% eye drop, 22nd day, 2 hours after the administration
  Difference in intraocular pressure after the administration: −0.250 ± 0.576 mmHg
[1]; 0.03% eye drop, 22nd day, 4 hours after the administration
  Difference in intraocular pressure after the administration: −0.200 ± 0.330 mmHg
[1]; 0.03% eye drop, 22nd day, 8 hours after the administration
  Difference in intraocular pressure after the administration: 0.350 ± 0.150 mmHg
[1]; 0.03% eye drop, 29th day, 0 hours after the administration
  Difference in intraocular pressure after the administration: 0.300 ± 1.011 mmHg
[1]; 0.03% eye drop, 29th day, 2 hours after the administration
  Difference in intraocular pressure after the administration: −0.250 ± 0.652 mmHg
[1]; 0.03% eye drop, 29th day, 4 hours after the administration
  Difference in intraocular pressure after the administration: −0.500 ± 0.306 mmHg
[1]; 0.03% eye drop, 29th day, 8 hours after the administration
  Difference in intraocular pressure after the administration: −0.200 ± 0.289 mmHg

## COC(=O)[C@H]1[C@H]2C[C@H]3c4[nH]c5ccccc5c4CCN3C[C@@H]2CC[C@@H]1O [corynanthine, methyl 17α-hydroxyyohimban-16β-carboxylate]
[4]; concentrations of 2 to 5% in eye drops
  activity for reducing intraocular pressure: demonstrated Lo have an activity for reducing intraocular pressure
[4]; continued administration for a week
  development of drug resistance: the continued administration thereof for a week developed drug resistance
